The numbers were not newly measured in patent US20230039551A1, “BUFFER- AND CHELATOR-FREE, STABLE OPHTHALMOLOGICAL COMPOSITIONS OF KETOROLAC AND PHENYLEPHRINE AND APPLICATIONS THEREOF” (Somerset Therapeutics, LLC, priority 2021, published 2023), which cites them from elsewhere.

Structures can show the parent of a compound that is named as a salt.

Turning to `O=C(c1ccccc1)c1ccc2n1CCC2C(=O)O` (centres unmarked) [Ketorolac tromethamine, 2-amino-2-(hydroxymethyl)propane-1,3-diol; 5-benzoyl-2,3-dihydro-1H-pyrrolizine-1-carboxylic acid], the pKa value result is “about 3.5”. Regarding `CNC[C@H](O)c1cccc(O)c1` [Phenylephrine HCl, 3-(1R)-1-hydroxy-2-(methylamino)ethyl]phenol; hydrochloride], the pKa value entry is on record as “about 9.07”.
